The text below walks through data of US10183943B2, “Heterocyclic compounds and their use in preventing or treating bacterial infections” (MUTABILIS, priority 2015, dated 2019).

The structures appear in SMILES notation. Structures can show the parent of a compound that is named as a salt.

The target in one assay is T1, CTX-M-15 (Escherichia coli, UniProt Q9EXV5).
T1 construct: made in house; host or cells: E. coli
The assay can be described thus: β-lactamase inhibitory activity, determination of IC50 (nitrocefin hydrolysis). The assay is classed as biochemical. The conditions noted are these: class (A); nitrocefin 200 μM, 30 min pre-incubation; read-out: IC50 β-lactamase CTX-M-15.

The target of the next assay is T2, KPC-2 (Klebsiella pneumoniae, UniProt Q9F663).
T2 construct: made in house; host or cells: E. coli
T2 sequence (Q9F663 25-293 limits assumed): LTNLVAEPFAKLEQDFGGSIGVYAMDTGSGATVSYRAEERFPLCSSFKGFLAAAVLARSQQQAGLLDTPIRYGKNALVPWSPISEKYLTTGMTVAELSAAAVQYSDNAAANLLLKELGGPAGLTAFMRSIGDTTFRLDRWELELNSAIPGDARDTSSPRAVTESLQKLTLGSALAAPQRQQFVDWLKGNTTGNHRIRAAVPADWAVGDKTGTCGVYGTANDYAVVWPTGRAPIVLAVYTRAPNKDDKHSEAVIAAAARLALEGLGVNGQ
Described as above. Type of assay: biochemical. Particulars: class (A); nitrocefin 200 μM, 30 min pre-incubation; read-out: IC50 β-lactamase KPC-2.

The target of the next assay is T3, OXA-48 (Klebsiella pneumoniae, UniProt Q6XEC0).
T3 construct: made in house; host or cells: E. coli
T3 sequence (Q6XEC0 23-265 limits assumed): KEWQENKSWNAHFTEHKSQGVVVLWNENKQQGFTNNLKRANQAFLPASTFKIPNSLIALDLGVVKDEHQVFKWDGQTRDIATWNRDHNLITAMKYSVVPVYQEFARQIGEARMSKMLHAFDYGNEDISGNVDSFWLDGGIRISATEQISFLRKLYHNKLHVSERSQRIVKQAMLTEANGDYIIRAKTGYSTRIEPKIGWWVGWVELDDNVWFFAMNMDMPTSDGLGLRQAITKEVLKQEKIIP
The description is as above. Type of assay: biochemical. The conditions noted are these: class (D); nitrocefin 200 μM, 30 min pre-incubation; read-out: IC50 β-lactamase OXA-48.

Assay [1] relates to E. cloacae 260508 (TEM-1, CTX-M-15). Nature of the assay: MIC of compounds alone, broth microdilution. Type of assay: cell-based. Particulars: Enterobacter cloacae, read-out: MIC compounds of the invention alone. The gist of the method:
(§1)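 Cpd alone in DMSO; CAMHB, log-phase inoculum 5×10^5 cfu/mL; 35° C, 16-20 h, ambient air; MIC = lowest conc. with no visible growth (CLSI M7-A7).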

Assay [2] deals with E. cloacae UFR70 (TEM-1, CTX-M-15, CMY-2, OXA-1, Porin loss). Nature of the assay: MIC of compounds alone, broth microdilution. Type of assay: cell-based. Particulars: Enterobacter cloacae, read-out: MIC compounds of the invention alone. The gist of the method:
as §1

Assay [3] concerns E. cloacae UFR85 (TEM-1, CTX-M-15, AmpC). The assay can be described thus: MIC of compounds alone, broth microdilution. The assay is classed as cell-based. Particulars: Enterobacter cloacae, read-out: MIC compounds of the invention alone. In short, it runs like this:
as §1

The next assay deals with E. coli RGN238 (OXA-1). Nature of the assay: MIC of compounds alone, broth microdilution. Type of assay: cell-based. Particulars: Escherichia coli; strain RGN238 (E. coli); read-out: MIC compounds of the invention alone. The gist of the method: as §1
(In general: Dilution methods test growth across graded concentrations, often in twofold steps.)

In assay [4] the test system is K. pneumoniae UFR68 (TEM-1, SHV-11, CTX-M-15, KPC-3). Nature of the assay: MIC of compounds alone, broth microdilution. Type of assay: cell-based. Particulars: Klebsiella pneumoniae, read-out: MIC compounds of the invention alone. The gist of the method:
as §1

The subject of assay [5] is E. coli UFR41 (TEM-1, CTX-M-15, CMY-2, OXA-1, NDM-4). The assay can be described thus: MIC of ceftazidime (CAZ) in combination with compounds at 4 μg/mL, broth microdilution. The conditions noted are these: strain UFR41; MIC of CAZ with compound fixed at 4 μg/mL. The assay is classed as cell-based. In short, it runs like this:
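Compounds were dissolved in DMSO and spotted onto plates. Log-phase cells were then added at 5×10^5 cfu/mL in cation-adjusted Mueller-Hinton broth, incubated 16-20 h at 35° C, and the MIC was scored visually as the lowest growth-inhibiting concentration.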

The target in the next assay is AmpC (P99) (Enterobacter cloacae, UniProt P05364). Nature of the assay: β-lactamase inhibitory activity, determination of IC50 (nitrocefin hydrolysis).
AmpC (P99), sequence (P05364 21-381): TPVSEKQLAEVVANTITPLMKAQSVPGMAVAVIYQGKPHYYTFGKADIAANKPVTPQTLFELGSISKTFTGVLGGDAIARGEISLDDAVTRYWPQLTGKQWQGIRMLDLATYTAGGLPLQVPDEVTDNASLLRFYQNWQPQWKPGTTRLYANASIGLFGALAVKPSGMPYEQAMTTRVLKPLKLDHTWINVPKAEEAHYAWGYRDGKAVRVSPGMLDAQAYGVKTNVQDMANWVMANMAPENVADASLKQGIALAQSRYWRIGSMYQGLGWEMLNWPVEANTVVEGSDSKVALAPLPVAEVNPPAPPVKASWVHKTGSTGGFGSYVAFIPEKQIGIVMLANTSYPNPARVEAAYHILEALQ
For assay [6], the system named is E. coli 190317 (TEM-1, SHV-12, CTX-M-15, OXA-1). The assay can be described thus: MIC of compounds alone, broth microdilution. The assay is classed as cell-based. The conditions noted are these: Escherichia coli, read-out: MIC compounds of the invention alone. The gist of the method: as §1

T1 sequence (Q9EXV5 entry or part of it): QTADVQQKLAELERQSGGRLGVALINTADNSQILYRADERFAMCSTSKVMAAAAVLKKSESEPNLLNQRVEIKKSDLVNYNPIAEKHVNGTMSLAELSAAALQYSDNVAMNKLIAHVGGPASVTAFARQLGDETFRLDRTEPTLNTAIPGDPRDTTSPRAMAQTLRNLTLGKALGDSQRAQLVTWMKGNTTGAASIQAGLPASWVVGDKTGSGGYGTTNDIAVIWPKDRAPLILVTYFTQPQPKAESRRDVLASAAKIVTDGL

As to `O=C1N2CC=C(c3cnco3)C(C2)N1OS(=O)(=O)[O-].[Na+]` (centres unmarked) [Example 3, Sodium [4-(oxazol-5-yl)-7-oxo-1,6-diazabicyclo[3.2.1]oct-3-en-6-yl]sulfate], the concentration for half-maximal inhibition (IC50) at CTX-M-15 was 2.8 nM; on KPC-2, 290 nM; on OXA-48, 3.5 nM; on AmpC (P99), 770 nM. Further, the MIC in [1] is 16 µg/mL; in assay [2], 8 µg/mL; in assay [3] it was above 32 µg/mL; in the assay on E. coli RGN238 (OXA-1) it was 16 µg/mL; in assay [4] it was above 32 µg/mL. In addition, the “MIC combination of CAZ and compounds of the invention at 4 μg/mL” value (“MIC combination” for short) in assay [5] is above 64 µg/mL.

As to `Cn1cc(C2=CCN3CC2N(OS(=O)(=O)[O-])C3=O)cnc1=O.[Na+]` (centres unmarked) [Example 15, Sodium [4-(N-methyl-2-oxo-pyrimidin-5-yl)-7-oxo-1,6-diazabicyclo[3.2.1]oct-3-en-6-yl] sulfate], the half-maximal inhibitory concentration (IC50) at CTX-M-15 was 6.3 nM; at KPC-2, 110 nM; at OXA-48, 7.9 nM; against AmpC (P99) it was 2000 nM. Further, the MIC in assay [2] was 8 µg/mL; in assay [3] it was above 32 µg/mL; in the assay with E. coli RGN238 (OXA-1), 16 µg/mL; in [4], above 32 µg/mL.

On to `Cn1ncc(C2=CCN3CC2N(OS(=O)(=O)[O-])C3=O)cc1=O.[Na+]` (centres unmarked) [Example 19, Sodium [4-(1-methyl-6-oxo-pyridazin-4-yl)-7-oxo-1,6-diazabicyclo[3.2.1]oct-3-en-6-yl] sulfate], for which the half-inhibitory concentration (IC50) at CTX-M-15 came to 5.4 nM; on KPC-2 it was 46 nM; on OXA-48, 4.7 nM; against AmpC (P99), 940 nM. The minimum inhibitory concentration (MIC) in assay [2] was 16 µg/mL; in assay [3], above 32 µg/mL; in [6], 2 µg/mL; in the assay with E. coli RGN238 (OXA-1) it was 32 µg/mL; in [4] it was above 32 µg/mL. Moreover, in [5], the “MIC combination” value is above 64 µg/mL.

`O=C1N2CC(c3ncco3)=CC(C2)N1OS(=O)(=O)[O-].[Na+]` (centres unmarked) [Example 25, Sodium [3-(oxazol-2-yl)-7-oxo-1,6-diazabicyclo[3.2.1]oct-3-en-6-yl]sulfate]: the half-inhibitory concentration (IC50) on CTX-M-15 is 15 nM; at KPC-2, 30 nM; at OXA-48 it was 6.6 nM; against AmpC (P99), 64 nM. In addition, the minimum inhibitory concentration (MIC) came out at 4 µg/mL in assay [1], 2 µg/mL in assay [2], 2 µg/mL in assay [3] and 2 µg/mL in the assay with E. coli RGN238 (OXA-1). In assay [5], the “MIC combination” value amounted to 0.25 µg/mL.

Take `NCc1cnc(C2=CC3CN(C2)C(=O)N3OS(=O)(=O)O)s1` (centres unmarked) [Example 38, [3-[5-(aminomethyl)thiazol-2-yl]-7-oxo-1,6-diazabicyclo[3.2.1]oct-3-en-6-yl] hydrogen sulfate]: the IC50 on CTX-M-15 was 0.79 nM; on KPC-2 it was 19 nM; on OXA-48, 7.7 nM; at AmpC (P99) it was 31 nM. Moreover, the minimal inhibitory concentration (MIC) was above 32 µg/mL in assay [1], 1 µg/mL in assay [6] and 32 µg/mL in the assay on E. coli RGN238 (OXA-1). In addition, the “MIC combination” value in [5] is “<=0.25 μg/mL”.

As for `O=C1N2CC(c3ncco3)=C[C@H](C2)N1OS(=O)(=O)[O-].[Na+]` [Example 44, Sodium [(5R)-3-(oxazol-2-yl)-7-oxo-1,6-diazabicyclo[3.2.1]oct-3-en-6-yl] sulfate], the half-maximal inhibitory concentration (IC50) at CTX-M-15 turned out to be 0.61 nM; at KPC-2 it was 11 nM; on OXA-48, 1.5 nM; at AmpC (P99), 10 nM. The MIC in [3] stood at 2 µg/mL; with E. coli RGN238 (OXA-1) it was 1 µg/mL; in [4], 4 µg/mL. Also, the “MIC combination” value in assay [5] was below 0.25 µg/mL.

One may read the IC50 as the concentration at which inhibition is half-maximal. By MIC is commonly meant the least concentration at which growth counts as inhibited.
